Experimental data from PubChem BioAssay AID248 (DTP/NCI, 2004).
Several values for one entry are separate records, joined by “and”; a condition that tells them apart may be missing. Identical values can stand only once. Inconclusive results and toxic doses are left out. No stated cut-off is given here; in the data, active means T/C of 150% or more; inactive means T/C below 125%.

Tested on: L1210 leukemia ip in BDF1 mice, survival T/C
Assay: NCI In Vivo Anticancer Drug Screen. Data for tumor model L1210 Leukemia (intraperitoneal) in B6D2F1 (BDF1) mice
Conditions: endpoint: mean survival time, higher = longer survival
Method in brief: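 Tumor was transplanted into mice, which were then dosed with test compound or vehicle alone. Survival was recorded for each group, and the treated figure was expressed relative to the control figure.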

[1] = dose: 50.0 mg/kg/injection, schedule: Q01DX001 (ip), vehicle: saline
[2] = dose: 100.0 mg/kg/injection, schedule: Q01DX001 (ip), vehicle: saline
[3] = dose: 100.0 mg/kg/injection, schedule: Q01DX009 (ip), vehicle: Klucel (hydroxypropylcellulose) (HPC)
[4] = dose: 200.0 mg/kg/injection, schedule: Q01DX001 (ip), vehicle: saline
[5] = dose: 200.0 mg/kg/injection, schedule: Q01DX009 (ip), vehicle: Klucel (hydroxypropylcellulose) (HPC)
[6] = dose: 400.0 mg/kg/injection, schedule: Q01DX001 (ip), vehicle: saline
[7] = dose: 100.0 mg/kg/injection, schedule: Q01DX001 (ip), vehicle: Klucel (hydroxypropylcellulose) (HPC)
[8] = dose: 200.0 mg/kg/injection, schedule: Q01DX001 (ip), vehicle: Klucel (hydroxypropylcellulose) (HPC)
[9] = dose: 400.0 mg/kg/injection, schedule: Q01DX001 (ip), vehicle: Klucel (hydroxypropylcellulose) (HPC)
[10] = dose: 100.0 mg/kg/injection, schedule: Q04DX003 (ip), vehicle: saline with Tween-80
[11] = dose: 200.0 mg/kg/injection, schedule: Q04DX003 (ip), vehicle: saline with Tween-80
[12] = dose: 400.0 mg/kg/injection, schedule: Q01DX009 (ip), vehicle: Klucel (hydroxypropylcellulose) (HPC)
[13] = dose: 400.0 mg/kg/injection, schedule: Q04DX003 (ip), vehicle: saline with Tween-80
[14] = dose: 50.0 mg/kg/injection, schedule: Q01DX001 (ip), vehicle: carboxymethylcellulose (CMC)
[15] = dose: 100.0 mg/kg/injection, schedule: Q01DX001 (ip), vehicle: carboxymethylcellulose (CMC)
[16] = dose: 200.0 mg/kg/injection, schedule: Q01DX001 (ip), vehicle: carboxymethylcellulose (CMC)
[17] = dose: 400.0 mg/kg/injection, schedule: Q01DX001 (ip), vehicle: carboxymethylcellulose (CMC)
[18] = dose: 100.0 mg/kg/injection, schedule: Q04DX003 (ip), vehicle: Klucel (hydroxypropylcellulose) (HPC)
[19] = dose: 200.0 mg/kg/injection, schedule: Q04DX003 (ip), vehicle: Klucel (hydroxypropylcellulose) (HPC)
[20] = dose: 100.0 mg/kg/injection, schedule: Q04DX002 (ip), vehicle: saline with Tween-80
[21] = dose: 400.0 mg/kg/injection, schedule: Q04DX003 (ip), vehicle: Klucel (hydroxypropylcellulose) (HPC)
[22] = dose: 100.0 mg/kg/injection, schedule: Q04DX002 (ip), vehicle: Klucel (hydroxypropylcellulose) (HPC)
[23] = dose: 200.0 mg/kg/injection, schedule: Q04DX002 (ip), vehicle: Klucel (hydroxypropylcellulose) (HPC)
[24] = dose: 400.0 mg/kg/injection, schedule: Q04DX002 (ip), vehicle: Klucel (hydroxypropylcellulose) (HPC)
[25] = dose: 400.0 mg/kg/injection, schedule: Q04DX002 (ip), vehicle: saline with Tween-80

Measured: T/C

COCC/C(COC)=N\N=C(/CCOC)COC
inactive: [1] 97 % of control | [2] 103 % of control | [3] 103 % of control | [4] 106 % of control | [5] 111 % of control | [6] 109 % of control

O=C(/C=C\c1ccccc1[N+](=O)[O-])C(=O)/C=C/c1ccccc1[N+](=O)[O-]
inactive: [7] 93 % of control | [8] 92 % of control | [9] 88 % of control

c1ccc(C2OC2(c2ccccc2)c2ccccc2)cc1 (stereo not drawn)
inactive: [3] 95 % of control | [10] 101 % of control | [5] 102 % of control | [11] 92 % of control | [12] 102 % of control | [13] 95 % of control

Cc1ccc(S(=O)(=O)Nc2cc(C)cc(CCN)c2C)cc1
inactive: [14] 98 % of control | [15] 101 % of control | [16] 98 % of control | [17] 93 % of control

Nc1ncnc2nc(-c3cccc(OCCCOc4ccccc4)c3)[nH]c12
inactive: dose: 75.0 mg/kg/injection, schedule: Q01DX001 (ip), vehicle: gum acacia 95 % of control | dose: 150.0 mg/kg/injection, schedule: Q01DX001 (ip), vehicle: gum acacia 93 % of control | dose: 300.0 mg/kg/injection, schedule: Q01DX001 (ip), vehicle: gum acacia 91 % of control

Nc1ncnc2c1ncn2C1OC(CO)C(O)C1N (stereo not drawn)
inactive: [14] 100 % of control | [1] 103 % of control and 108 % of control | [15] 110 % of control | [2] 98 % of control and 103 % of control | [16] 100 % of control | [4] 90 % of control and 108 % of control | [17] 98 % of control | [6] 100 % of control and 116 % of control

CCCCS/C=C1/CC2(C)C(CCC3C4CCC(O)C4(C)CCC32)CC1=O (stereo not drawn)
inactive: [18] 89 % of control | [19] 91 % of control

CCCNC(=O)C1C2CCC(C2)C1C(=O)NCCC (stereo not drawn)
inactive: [10] 96 % of control | [11] 96 % of control | [13] 96 % of control

O=C(NC1CCCCC1)OCCOc1ccccc1
inactive: [3] 95 % of control | [5] 103 % of control | [12] 97 % of control

CC(=O)OCC1OC(Sc2ncc3cnccn23)C(OC(C)=O)C(OC(C)=O)C1OC(C)=O (stereo not drawn)
inactive: dose: 100.0 mg/kg/injection, schedule: Q01DX005 (ip), vehicle: saline 88 % of control | dose: 200.0 mg/kg/injection, schedule: Q01DX005 (ip), vehicle: saline 93 % of control

CC1(C)CN(C(C)(C)C)CC(C)(C)C(=O)C1=O
inactive: dose: 50.0 mg/kg/injection, schedule: Q01DX001 (ip), vehicle: saline sonified 91 % of control | dose: 100.0 mg/kg/injection, schedule: Q01DX001 (ip), vehicle: saline sonified 98 % of control | dose: 200.0 mg/kg/injection, schedule: Q01DX001 (ip), vehicle: saline sonified 87 % of control

c1ccc2c(CCNC3=NCCO3)c[nH]c2c1
inactive: dose: 50.0 mg/kg/injection, schedule: Q04DX002 (ip), vehicle: saline with Tween-80 91 % of control | [20] 91 % of control | [18] 94 % of control | [19] 108 % of control | [21] 94 % of control

Cc1nc([N+](=O)[O-])cn1CCN1CCOCC1
inactive: dose: 50.0 mg/kg/injection, schedule: Q01DX009 (ip), vehicle: Klucel (hydroxypropylcellulose) (HPC) 102 % of control | [3] 94 % of control | [22] 92 % of control | [5] 102 % of control | [23] 105 % of control | [24] 105 % of control

C1CC(CCN2CCOCC2)CCN1
inactive: [2] 98 % of control | [4] 107 % of control | [6] 105 % of control

Clc1c2ccccc2cc2ccccc12
inactive: [22] 92 % of control | [23] 100 % of control | [24] 107 % of control

O=C1c2ccccc2C(=O)c2c(O)c([N+](=O)[O-])cc([N+](=O)[O-])c21
inactive: [2] 98 % of control | [4] 104 % of control | [6] 100 % of control

CC(=O)Nc1ncccn1
inactive: [20] 98 % of control | dose: 200.0 mg/kg/injection, schedule: Q04DX002 (ip), vehicle: saline with Tween-80 98 % of control | [25] 98 % of control

O=C(NC1CCC(CC2CCCCC2)CC1)c1ccccc1 (stereo not drawn)
inactive: [10] 92 % of control | [11] 97 % of control | [13] 113 % of control

ClCCC[Si](Cl)(Cl)Cl
inactive: dose: 75.0 mg/kg/injection, schedule: Q01DX001 (ip), vehicle: saline 109 % of control | dose: 150.0 mg/kg/injection, schedule: Q01DX001 (ip), vehicle: saline 107 % of control | dose: 300.0 mg/kg/injection, schedule: Q01DX001 (ip), vehicle: saline 100 % of control

CCC1(CC)C=CC(Br)CC1(CC)CC (stereo not drawn)
inactive: [10] 103 % of control | [11] 101 % of control | [13] 101 % of control

CC(C)(O)CC1=C(O)c2ccccc2C(=O)C1=O
inactive: [14] 105 % of control | [15] 97 % of control | [16] 105 % of control | [17] 105 % of control

COC(=O)C(C)CN1CCCCC1 (stereo not drawn)
inactive: dose: 50.0 mg/kg/injection, schedule: Q01DX009 (ip), vehicle: saline 101 % of control | dose: 100.0 mg/kg/injection, schedule: Q01DX009 (ip), vehicle: saline 97 % of control | dose: 100.0 mg/kg/injection, schedule: Q04DX003 (ip), vehicle: saline 102 % of control | dose: 200.0 mg/kg/injection, schedule: Q01DX009 (ip), vehicle: saline 101 % of control | dose: 200.0 mg/kg/injection, schedule: Q04DX003 (ip), vehicle: saline 105 % of control

Cc1ccc(N2C(=O)CC(N3CCCCC3)C2=O)cc1 (stereo not drawn)
inactive: [3] 102 % of control | [5] 96 % of control | [12] 91 % of control

CCCNC(=O)Nc1ccc(Cl)cc1
inactive: [15] 103 % of control | [16] 98 % of control | [17] 95 % of control

COC(=O)c1ccccc1-c1c(C)cccc1[N+](=O)[O-]
inactive: dose: 100.0 mg/kg/injection, schedule: Q01DX009 (ip), vehicle: saline with Tween-80 105 % of control | dose: 200.0 mg/kg/injection, schedule: Q01DX009 (ip), vehicle: saline with Tween-80 90 % of control | dose: 400.0 mg/kg/injection, schedule: Q01DX009 (ip), vehicle: saline with Tween-80 100 % of control

CC1CCCCN1 (stereo not drawn)
inactive: dose: 100.0 mg/kg/injection, schedule: Q04DX002 (ip), vehicle: saline 105 % of control | dose: 200.0 mg/kg/injection, schedule: Q04DX002 (ip), vehicle: saline 94 % of control | dose: 400.0 mg/kg/injection, schedule: Q04DX002 (ip), vehicle: saline 112 % of control

Cc1cc(C(=O)O)c2c([nH]1)c(C)cc1nc3ccccc3c12
inactive: [14] 101 % of control | [15] 101 % of control | [16] 108 % of control | [17] 95 % of control

O=C(O)c1ccccc1N1C(=O)c2ccccc2C1=O
inactive: [2] 91 % of control | [4] 96 % of control | [6] 94 % of control

Cc1ccc(N(CCO)CCO)cc1NC(=O)c1ccccc1
inactive: [15] 103 % of control | [16] 101 % of control | [17] 101 % of control

COc1cccc(C(=O)O)c1OC
inactive: dose: 100.0 mg/kg/injection, schedule: Q04DX003 (ip), vehicle: saline sonified 95 % of control | dose: 200.0 mg/kg/injection, schedule: Q04DX003 (ip), vehicle: saline sonified 95 % of control | dose: 400.0 mg/kg/injection, schedule: Q04DX003 (ip), vehicle: saline sonified 97 % of control

C[As+]1(N)c2ccccc2Nc2ccccc21
inactive: [2] 86 % of control | [4] 93 % of control | [6] 91 % of control

Cc1ccc(N)cc1CO
inactive: [7] 94 % of control | [18] 94 % of control | [8] 92 % of control | [19] 103 % of control | [9] 100 % of control | [21] 94 % of control

O=C(/C=C\c1ccc(Cl)c(Cl)c1)/C=C/c1ccc(Cl)c(Cl)c1
inactive: [20] 92 % of control | [25] 92 % of control

CN(C)c1ccc(C=NCCN=Cc2ccc(N(C)C)cc2)cc1
inactive: [10] 98 % of control | [11] 106 % of control | [13] 95 % of control
